{"source": "PubChem BioAssay AID2060511", "about": "(Molecular Pharmacology Branch, DTP, NCI, 2025)", "tested_on": "422866-222-R5-J1-PDC spheroids with HUVEC/MSC, viability", "test": "Anticancer human tumor 422866-222-R5-J1-PDC patient-derived pancreatic adenocarcinoma cell line growth inhibition [GQUAD]", "conditions": "for IC50: curve of first compound; for viability, T/C: stronger effect = lower value", "how_it_was_run": "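Viability of tumor cells grown as complex spheroids with endothelial and stromal cells, exposed to drug combinations. Top concentration at or near clinical Cmax (else 10 microM), diluted in half-log increments.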", "key": {"[1]": {"conditions": "second compound 0.0316 µM, first compound 0.0316 µM"}, "[2]": {"conditions": "second compound 0.0316 µM, first compound 0.1 µM"}, "[3]": {"conditions": "second compound 0.0316 µM, first compound 0.316 µM"}, "[4]": {"conditions": "second compound 0.0316 µM, first compound 1 µM"}, "[5]": {"conditions": "second compound 0.0316 µM, first compound 3.16 µM"}, "[6]": {"conditions": "second compound 0.0316 µM, first compound 10 µM"}, "[7]": {"conditions": "second compound 0.1 µM, first compound 0.0316 µM"}, "[8]": {"conditions": "second compound 0.1 µM, first compound 0.1 µM"}, "[9]": {"conditions": "second compound 0.1 µM, first compound 0.316 µM"}, "[10]": {"conditions": "second compound 0.1 µM, first compound 1 µM"}, "[11]": {"conditions": "second compound 0.1 µM, first compound 3.16 µM"}, "[12]": {"conditions": "second compound 0.1 µM, first compound 10 µM"}, "[13]": {"conditions": "second compound 0.316 µM, first compound 0.0316 µM"}, "[14]": {"conditions": "second compound 0.316 µM, first compound 0.1 µM"}, "[15]": {"conditions": "second compound 0.316 µM, first compound 0.316 µM"}, "[16]": {"conditions": "second compound 0.316 µM, first compound 1 µM"}, "[17]": {"conditions": "second compound 0.316 µM, first compound 3.16 µM"}, "[18]": {"conditions": "second compound 0.316 µM, first compound 10 µM"}, "[19]": {"conditions": "second compound 1 µM, first compound 0.0316 µM"}, "[20]": {"conditions": "second compound 1 µM, first compound 0.1 µM"}, "[21]": {"conditions": "second compound 1 µM, first compound 0.316 µM"}, "[22]": {"conditions": "second compound 1 µM, first compound 1 µM"}, "[23]": {"conditions": "second compound 1 µM, first compound 3.16 µM"}, "[24]": {"conditions": "second compound 1 µM, first compound 10 µM"}, "[25]": {"conditions": "second compound 3.16 µM, first compound 0.0316 µM"}, "[26]": {"conditions": "second compound 3.16 µM, first compound 0.1 µM"}, "[27]": {"conditions": "second compound 3.16 µM, first compound 0.316 µM"}, "[28]": {"conditions": "second compound 3.16 µM, first compound 1 µM"}, "[29]": {"conditions": "second compound 3.16 µM, first compound 3.16 µM"}, "[30]": {"conditions": "second compound 3.16 µM, first compound 10 µM"}, "[31]": {"conditions": "second compound 10 µM, first compound 0.0316 µM"}, "[32]": {"conditions": "second compound 10 µM, first compound 0.1 µM"}, "[33]": {"conditions": "second compound 10 µM, first compound 0.316 µM"}, "[34]": {"conditions": "second compound 10 µM, first compound 1 µM"}, "[35]": {"conditions": "second compound 10 µM, first compound 3.16 µM"}, "[36]": {"conditions": "second compound 10 µM, first compound 10 µM"}}}
{"compound": "C#Cc1c(F)ccc2cc(O)cc(-c3ncc4c(N5CC6CCC(C5)N6)nc(OCC56CCCN5CC(F)C6)nc4c3F)c12", "note": "(centres undefined) + Cc1cnc(CNC(=O)c2c(=O)c3ccc(N4CCCN(C)CC4)nc3n3c2sc2ccccc23)cn1;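 note: spheroids exposed to compounds for seven days before reading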;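 for viability, T/C: percent viability relative to DMSO vehicle control taken as 100%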", "values": [{"measurement": "IC50", "setting": "second compound 0.0316 µM", "value": 1.76, "unit": "µM"}, {"measurement": "IC50", "setting": "second compound 0.1 µM", "value": 1.41, "unit": "µM"}, {"measurement": "IC50", "setting": "second compound 0.316 µM", "value": 3.22, "unit": "µM"}, {"measurement": "IC50", "setting": "second compound 1 µM", "value": 3.46, "unit": "µM"}, {"measurement": "IC50", "setting": "second compound 3.16 µM", "value": 2.32, "unit": "µM"}, {"measurement": "IC50", "setting": "second compound 10 µM", "value": 1.36, "unit": "µM"}, {"measurement": "viability, T/C", "setting": "[1]", "value": 95.9, "unit": "%"}, {"measurement": "viability, T/C", "setting": "[2]", "value": 87, "unit": "%"}, {"measurement": "viability, T/C", "setting": "[3]", "value": 72, "unit": "%"}, {"measurement": "viability, T/C", "setting": "[4]", "value": 57.1, "unit": "%"}, {"measurement": "viability, T/C", "setting": "[5]", "value": 43, "unit": "%"}, {"measurement": "viability, T/C", "setting": "[6]", "value": 29.5, "unit": "%"}, {"measurement": "viability, T/C", "setting": "[7]", "value": 98.4, "unit": "%"}, {"measurement": "viability, T/C", "setting": "[8]", "value": 97.9, "unit": "%"}, {"measurement": "viability, T/C", "setting": "[9]", "value": 69.7, "unit": "%"}, {"measurement": "viability, T/C", "setting": "[10]", "value": 55.3, "unit": "%"}, {"measurement": "viability, T/C", "setting": "[11]", "value": 42.5, "unit": "%"}, {"measurement": "viability, T/C", "setting": "[12]", "value": 30.7, "unit": "%"}, {"measurement": "viability, T/C", "setting": "[13]", "value": 97, "unit": "%"}, {"measurement": "viability, T/C", "setting": "[14]", "value": 79.4, "unit": "%"}, {"measurement": "viability, T/C", "setting": "[15]", "value": 75.4, "unit": "%"}, {"measurement": "viability, T/C", "setting": "[16]", "value": 65.6, "unit": "%"}, {"measurement": "viability, T/C", "setting": "[17]", "value": 49.8, "unit": "%"}, {"measurement": "viability, T/C", "setting": "[18]", "value": 36.1, "unit": "%"}, {"measurement": "viability, T/C", "setting": "[19]", "value": 95.8, "unit": "%"}, {"measurement": "viability, T/C", "setting": "[20]", "value": 86.3, "unit": "%"}, {"measurement": "viability, T/C", "setting": "[21]", "value": 73.6, "unit": "%"}, {"measurement": "viability, T/C", "setting": "[22]", "value": 57.4, "unit": "%"}, {"measurement": "viability, T/C", "setting": "[23]", "value": 55, "unit": "%"}, {"measurement": "viability, T/C", "setting": "[24]", "value": 39.7, "unit": "%"}, {"measurement": "viability, T/C", "setting": "[25]", "value": 77.4, "unit": "%"}, {"measurement": "viability, T/C", "setting": "[26]", "value": 85.1, "unit": "%"}, {"measurement": "viability, T/C", "setting": "[27]", "value": 78.8, "unit": "%"}, {"measurement": "viability, T/C", "setting": "[28]", "value": 58.2, "unit": "%"}, {"measurement": "viability, T/C", "setting": "[29]", "value": 49.7, "unit": "%"}, {"measurement": "viability, T/C", "setting": "[30]", "value": 37, "unit": "%"}, {"measurement": "viability, T/C", "setting": "[31]", "value": 70.5, "unit": "%"}, {"measurement": "viability, T/C", "setting": "[32]", "value": 82, "unit": "%"}, {"measurement": "viability, T/C", "setting": "[33]", "value": 73, "unit": "%"}, {"measurement": "viability, T/C", "setting": "[34]", "value": 52.4, "unit": "%"}, {"measurement": "viability, T/C", "setting": "[35]", "value": 43.3, "unit": "%"}, {"measurement": "viability, T/C", "setting": "[36]", "value": 34.4, "unit": "%"}]}
{"compound": "CC(=O)O[C@H]1C(=O)[C@@]2(C)[C@H]([C@H](OC(=O)c3ccccc3)[C@]3(O)C[C@H](OC(=O)[C@H](O)[C@@H](NC(=O)c4ccccc4)c4ccccc4)C(C)=C1C3(C)C)[C@]1(OC(C)=O)CO[C@@H]1C[C@@H]2O", "note": "+ Cc1cnc(CNC(=O)c2c(=O)c3ccc(N4CCCN(C)CC4)nc3n3c2sc2ccccc23)cn1", "values": [{"measurement": "IC50", "setting": "second compound 0.0316 µM", "value": "> 10", "unit": "µM"}, {"measurement": "IC50", "setting": "second compound 0.1 µM", "value": "> 10", "unit": "µM"}, {"measurement": "IC50", "setting": "second compound 0.316 µM", "value": "> 10", "unit": "µM"}, {"measurement": "IC50", "setting": "second compound 1 µM", "value": "> 10", "unit": "µM"}, {"measurement": "IC50", "setting": "second compound 3.16 µM", "value": "> 10", "unit": "µM"}, {"measurement": "IC50", "setting": "second compound 10 µM", "value": "> 10", "unit": "µM"}, {"measurement": "viability, T/C", "setting": "[1]", "value": 81, "unit": "%"}, {"measurement": "viability, T/C", "setting": "[2]", "value": 67.2, "unit": "%"}, {"measurement": "viability, T/C", "setting": "[3]", "value": 80.3, "unit": "%"}, {"measurement": "viability, T/C", "setting": "[4]", "value": 71.9, "unit": "%"}, {"measurement": "viability, T/C", "setting": "[5]", "value": 73.8, "unit": "%"}, {"measurement": "viability, T/C", "setting": "[6]", "value": 91.6, "unit": "%"}, {"measurement": "viability, T/C", "setting": "[7]", "value": 88, "unit": "%"}, {"measurement": "viability, T/C", "setting": "[8]", "value": 86.3, "unit": "%"}, {"measurement": "viability, T/C", "setting": "[9]", "value": 77.1, "unit": "%"}, {"measurement": "viability, T/C", "setting": "[10]", "value": 86.2, "unit": "%"}, {"measurement": "viability, T/C", "setting": "[11]", "value": 95.5, "unit": "%"}, {"measurement": "viability, T/C", "setting": "[12]", "value": 97.4, "unit": "%"}, {"measurement": "viability, T/C", "setting": "[13]", "value": 89.5, "unit": "%"}, {"measurement": "viability, T/C", "setting": "[14]", "value": 82.8, "unit": "%"}, {"measurement": "viability, T/C", "setting": "[15]", "value": 85.3, "unit": "%"}, {"measurement": "viability, T/C", "setting": "[16]", "value": 107, "unit": "%"}, {"measurement": "viability, T/C", "setting": "[17]", "value": 115, "unit": "%"}, {"measurement": "viability, T/C", "setting": "[18]", "value": 117, "unit": "%"}, {"measurement": "viability, T/C", "setting": "[19]", "value": 79.2, "unit": "%"}, {"measurement": "viability, T/C", "setting": "[20]", "value": 74.6, "unit": "%"}, {"measurement": "viability, T/C", "setting": "[21]", "value": 86.5, "unit": "%"}, {"measurement": "viability, T/C", "setting": "[22]", "value": 94.5, "unit": "%"}, {"measurement": "viability, T/C", "setting": "[23]", "value": 117, "unit": "%"}, {"measurement": "viability, T/C", "setting": "[24]", "value": 119, "unit": "%"}, {"measurement": "viability, T/C", "setting": "[25]", "value": 83.3, "unit": "%"}, {"measurement": "viability, T/C", "setting": "[26]", "value": 94.5, "unit": "%"}, {"measurement": "viability, T/C", "setting": "[27]", "value": 94.1, "unit": "%"}, {"measurement": "viability, T/C", "setting": "[28]", "value": 91.7, "unit": "%"}, {"measurement": "viability, T/C", "setting": "[29]", "value": 118, "unit": "%"}, {"measurement": "viability, T/C", "setting": "[30]", "value": 107, "unit": "%"}, {"measurement": "viability, T/C", "setting": "[31]", "value": 80.1, "unit": "%"}, {"measurement": "viability, T/C", "setting": "[32]", "value": 78.8, "unit": "%"}, {"measurement": "viability, T/C", "setting": "[33]", "value": 71.6, "unit": "%"}, {"measurement": "viability, T/C", "setting": "[34]", "value": 101, "unit": "%"}, {"measurement": "viability, T/C", "setting": "[35]", "value": 104, "unit": "%"}, {"measurement": "viability, T/C", "setting": "[36]", "value": 123, "unit": "%"}]}
